Assay results taken from publication PMC8394356 (Biomedicines, 2021).
pIC50: −log10 of the molar value. “And” between values parts separate entries of the source, which are not always exact repeats. Equal entries are not always repeated. Structures can show the parent of a compound that is named as a salt. Where two headings read alike, the source gives them in different places.

Columns and labels:
recombinant human AChE = target: T1, recombinant human AChE (Homo sapiens, UniProt P22303); assay: biochemical; conditions: for pIC50: isolated compounds from TT-hull-50EE, recombinant human AChE
T1 construct: purchased R&D Systems Inc. 7574-CE
Procedure: The acetylthiocholine iodide and DTNB were used for in vitro AChE inhibitory activity assays following the previous report. […] An equal volume of DMSO instead of the sample solution was used as a blank and expressed as 100% AChE activity. The absorbance changes were recorded at 405 nm for 10 min. The AChE inhibition (%) was calculated as follows: [(A405blank−A405sample)/(A405blank)] × 100%.

[1] = Oxygen radical absorbance capacity (ORAC), OxiSelect Assay Kit; conditions: for ORAC activities relative to those of Trolox / ORAC activities, fold higher than those of Trolox: compound at 10 μM; for ORAC activities relative to those of Trolox: % of Trolox; for ORAC values: compound at a concentration of 10 μM
Procedure: The antioxidant index of free radical scavenging activities of the extracts (1.5 or 2.5 μg/mL) and purified compounds (10 μM) of TT-hull were determined by a commercial OxiSelect™ Assay Kit for oxygen radical absorbance capacity (ORAC) determination. The standard curve of ORAC was plotted using different concentrations of water-soluble vitamin E analog (the compound’s name was Trolox, 6-hydroxy-2,5,7,8-tetramethylchroman-2-carboxylic acid) at 2.5, 5, 10, 20, 40, and 60 μM. Therefore, the ORAC activities of TT-hull extracts or purified compounds were calculated equivalently to the Trolox effects and expressed as Trolox equivalents (μM).

Aβ (1-42) peptide = target: T2, Aβ (1-42) peptide (Homo sapiens, UniProt P05067); assay: Inhibition of Aβ (1-42) aggregation in vitro (ThT fluorescent assay); format: biochemical; conditions: for inhibition at 10 µM: read-out: inhibition of Aβ aggregation
T2 construct: the synthetic Aβ (1-42) peptide was weighed in an Eppendorf tube; purchased Kelowna International Scientific Inc; host or cells: synthetic peptide
Procedure: The ThT fluorescent assay was used to monitor the isolated compounds from the TT-hull on inhibition of Aβ (1-42) peptide aggregations. For the preparation of the Aβ stock film, the synthetic Aβ (1-42) peptide was weighed in an Eppendorf tube and dissolved in HFIP to prepare a 1 mM stock solution; then, HFIP solvent was evaporated to form the Aβ (1-42) film. The stock film was dissolved in 100 μL of 60 mM NaOH, and further diluted with 50 mM phosphate buffer (pH7.4, containing 150 mM sodium chloride, 1 mM EDTA, and 0.02% sodium azide). The 125 μL working solution contained 10 μM Aβ (1-42) peptide, purified compounds (10, 20, and 40 μM in DMSO), and 10 μM ThT solution, which was gently shaken at 37 °C for 24 h. The mixture without the sample additions was the control. The fluorescence ratios of Ex440nm/Em486nm were recorded at a time of 0 h and 24 h, and changes in fluorescence over a 24 h period were expressed as ΔE. The inhibition of Aβ aggregation (%) was calculated as [(ΔEcontrol−ΔEsample)/(ΔEcontrol)] × 100%.

[2] = system: scopolamine-induced amnesiac ICR mice; assay: Passive avoidance test in scopolamine-induced amnesiac ICR mice; format: in vivo; conditions: scopolamine 1 mg/kg i.p.
Procedure: The oral administration of TT-hull extracts or purified compounds in scopolamine-induced amnesiac ICR mice was performed according to the previous report, with some modifications. The 8-week-old male ICR mice were purchased from the Laboratory Animal Center, College of Medicine, National Taiwan University (Taipei, Taiwan). Normal diets (Prolab® RMH2500, Jefferson City, MO, USA) and water were provided during the animal experiments. All animal experimental protocols were approved by the Institutional Animal Care and Use Committee of Taipei Medical University (LAC-2016-0275). After one week of acclimation, for treatments of TT-hull extracts to test prevention, the mice were randomly divided into seven groups (6 heads/group), including the blank, the control, the donepezil-positive control, and the four extract-administered groups. […] Except for the blank group, the mice in each group were intraperitoneally injected with scopolamine (1 mg/kg) 30 min after the oral sample administration, and the mice in the blank group were injected with an equal volume of PBS. After being injected with scopolamine or PBS for another 30 min, each mouse was evaluated by a passive avoidance test at day 13 to day 14 and by the Morris water maze from day 17 to day 19. At the end of the experiments at day 20, the mice were sacrificed. For oral administration of purified compounds to test prevention, the ICR mice were pre-administered orally with TT-1 (100 mg/kg, 200 mg/kg) or TT-2 (300 mg/kg) once a day by gavage from day 1 to day 5; […]. From day 6 to day 11, the procedure was the same for the oral administration of the TT-hull extracts. Each mouse was evaluated by a passive avoidance test at day 6 to day 7 and by the Morris water maze from day 8 to day 10. […]
The passive avoidance test and Morris water maze were used to evaluate the learning and memory functions of scopolamine-treated mice after the treatments with TT-hull extracts or purified compounds, by following the previous report. […] The time for which each mouse stayed in the light box (step-through latency of the acquisition trial, sec) was recorded. […] On the second day of the passive avoidance test (as the retention trial), the same protocol was performed, except that there were no electric foot shocks in the dark box, and the time for which each mouse stayed in the light box (step-through latency of the retention trial) was recorded. […] For the second training procedure of the third day (as the reference memory task), the time required for the mouse to find and climb onto the platform from the starting point was recorded as the latency (sec). The platform was then removed (as the probe test), and the swimming time and crossing time in the platform quadrant were recorded for each mouse.

[3] = system: scopolamine-induced amnesiac ICR mice; assay: Morris water maze in scopolamine-induced amnesiac ICR mice; format: in vivo; conditions: donepezil 5 mg/kg, scopolamine 1 mg/kg i.p.
Procedure: The oral administration of TT-hull extracts or purified compounds in scopolamine-induced amnesiac ICR mice was performed according to the previous report, with some modifications. The 8-week-old male ICR mice were purchased from the Laboratory Animal Center, College of Medicine, National Taiwan University (Taipei, Taiwan). Normal diets (Prolab® RMH2500, Jefferson City, MO, USA) and water were provided during the animal experiments. All animal experimental protocols were approved by the Institutional Animal Care and Use Committee of Taipei Medical University (LAC-2016-0275). After one week of acclimation, for treatments of TT-hull extracts to test prevention, the mice were randomly divided into seven groups (6 heads/group), including the blank, the control, the donepezil-positive control, and the four extract-administered groups. […] Except for the blank group, the mice in each group were intraperitoneally injected with scopolamine (1 mg/kg) 30 min after the oral sample administration, and the mice in the blank group were injected with an equal volume of PBS. After being injected with scopolamine or PBS for another 30 min, each mouse was evaluated by a passive avoidance test at day 13 to day 14 and by the Morris water maze from day 17 to day 19. At the end of the experiments at day 20, the mice were sacrificed. For oral administration of purified compounds to test prevention, the ICR mice were pre-administered orally with TT-1 (100 mg/kg, 200 mg/kg) or TT-2 (300 mg/kg) once a day by gavage from day 1 to day 5; […]. From day 6 to day 11, the procedure was the same for the oral administration of the TT-hull extracts. Each mouse was evaluated by a passive avoidance test at day 6 to day 7 and by the Morris water maze from day 8 to day 10. At the end of the experiments at day 11, the mice were sacrificed, and the brain tissue was isolated and stored at −80 °C for further measurements.
The passive avoidance test and Morris water maze were used to evaluate the learning and memory functions of scopolamine-treated mice after the treatments with TT-hull extracts or purified compounds, by following the previous report. The apparatus of the passive avoidance test included a light box and a dark box separated by a guillotine door in a shuttle chamber (AccuScan Instruments Inc, Columbus, OH, USA), and a wired metal floor was placed in the dark box to provide electric foot shocks during the acquisition trial. On the first day of the passive avoidance test (as the acquisition trial), each mouse was acclimatized to the shuttle chamber for 30 min, and then placed in the light box. The mouse entered the dark box, the guillotine door was immediately closed, and, at the same time, an electric shock (0.3 mA) was delivered for 3 sec to the mouse via the wired metal floor. The time for which each mouse stayed in the light box (step-through latency of the acquisition trial, sec) was recorded. […] On the second day of the passive avoidance test (as the retention trial), the same protocol was performed, except that there were no electric foot shocks in the dark box, and the time for which each mouse stayed in the light box (step-through latency of the retention trial) was recorded. For the Morris water maze evaluations, a three-successive-day training protocol was performed; each mouse was trained for 1 min to find and climb onto the platform twice a day at 30 min intervals. For the second training procedure of the third day (as the reference memory task), the time required for the mouse to find and climb onto the platform from the starting point was recorded as the latency (sec). The platform was then removed (as the probe test), and the swimming time and crossing time in the platform quadrant were recorded for each mouse.

[4] = system: scopolamine-induced amnesiac mice; conditions: 10 mg/kg, with or without nanoparticle-delivered formulation; cited from earlier work
[5] = target: T3, AChE activity in brain extracts (Mus musculus, UniProt P21836); format: in vivo; conditions: oral TT-1 200 mg/kg, donepezil 5 mg/kg; scopolamine-induced amnesiac mice
T3 construct: from tissue; host or cells: whole brain of ICR mice
Procedure: (§1) At the end of the TT-1 and TT-2 treatments, mice were sacrificed, and the whole brain of each ICR mouse was isolated and immediately stored at −80 °C for the measurement of residual AChE activity and the reduced GSH levels. The whole brain of each mouse was ground into powder by means of a mortar and pestle in liquid nitrogen and then extracted by adding 1 mL of 100 mM phosphate buffer (pH 7.5) to the ice bath. […] The residual AChE activity of each brain extract was expressed as [A405sample−A405sample blank]/μg protein.

[6] = system: reduced form GSH contents in brain extracts; assay: Reduced GSH levels in brain tissue extracts of treated mice; format: in vivo; conditions: oral TT-1 200 mg/kg, donepezil 5 mg/kg; scopolamine-induced amnesiac mice
Procedure: as §1

[7] = cited from earlier work
[8] = read-out: IC50 of AChE inhibitory activity
[9] = 1:2 ratio of Aβ to compound, 10 μM to 20 μM, 37 °C, 24 h
[10] = 1:4 ratio of Aβ to compound, 10 μM to 40 μM, 37 °C, 24 h
[11] = purified compound experiment, oral TT-1 100 and 200 mg/kg, TT-2 300 mg/kg, donepezil 5 mg/kg
[12] = extract experiment, oral 50EE or HWE 100 and 200 mg/kg
[13] = purified compound experiment, oral TT-1 200 mg/kg
[14] = 1:1 ratio of Aβ to compound, 10 μM:10 μM, 37 °C, 24 h
[15] = IC50 of AChE inhibitory activity

T1 sequence (P22303 32-614): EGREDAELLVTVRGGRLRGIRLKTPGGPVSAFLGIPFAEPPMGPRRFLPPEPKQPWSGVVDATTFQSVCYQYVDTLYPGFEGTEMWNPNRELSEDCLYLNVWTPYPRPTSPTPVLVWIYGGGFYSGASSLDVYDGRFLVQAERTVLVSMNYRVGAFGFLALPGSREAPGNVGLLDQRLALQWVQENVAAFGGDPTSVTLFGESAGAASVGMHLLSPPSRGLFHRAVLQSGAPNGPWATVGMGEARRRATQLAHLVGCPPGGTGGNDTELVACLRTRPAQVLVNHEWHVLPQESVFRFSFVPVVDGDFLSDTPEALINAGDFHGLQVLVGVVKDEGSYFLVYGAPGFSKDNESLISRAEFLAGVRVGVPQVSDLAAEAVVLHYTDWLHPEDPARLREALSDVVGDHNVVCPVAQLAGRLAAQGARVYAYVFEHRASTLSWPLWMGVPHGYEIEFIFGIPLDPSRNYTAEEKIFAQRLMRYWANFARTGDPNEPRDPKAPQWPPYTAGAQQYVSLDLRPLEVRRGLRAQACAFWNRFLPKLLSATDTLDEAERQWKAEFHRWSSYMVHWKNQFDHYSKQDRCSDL
T2 sequence (P05067 672-713): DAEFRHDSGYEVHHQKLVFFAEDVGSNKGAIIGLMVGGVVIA
T3 sequence (P21836 32-614): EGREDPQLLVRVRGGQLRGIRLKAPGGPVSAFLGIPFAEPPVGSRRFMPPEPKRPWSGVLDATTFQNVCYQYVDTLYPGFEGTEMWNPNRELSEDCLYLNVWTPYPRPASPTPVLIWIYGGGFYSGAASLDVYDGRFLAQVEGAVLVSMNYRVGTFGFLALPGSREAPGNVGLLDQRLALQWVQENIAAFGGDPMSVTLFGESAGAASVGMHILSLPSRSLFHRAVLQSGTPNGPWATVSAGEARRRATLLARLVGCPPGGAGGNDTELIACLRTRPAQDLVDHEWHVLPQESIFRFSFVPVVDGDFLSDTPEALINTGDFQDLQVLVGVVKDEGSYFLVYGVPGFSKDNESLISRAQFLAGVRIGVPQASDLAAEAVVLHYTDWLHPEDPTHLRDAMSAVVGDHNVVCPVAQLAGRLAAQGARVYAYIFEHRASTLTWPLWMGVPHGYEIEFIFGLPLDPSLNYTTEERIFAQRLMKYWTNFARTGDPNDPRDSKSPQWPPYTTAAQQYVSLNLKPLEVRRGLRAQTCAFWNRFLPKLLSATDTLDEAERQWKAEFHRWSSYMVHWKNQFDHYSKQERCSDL

Row | Compound | pIC50 (recombinant human AChE; [8]) | ORAC values [1] | inhibition of Aβ aggregation (Aβ (1-42) peptide; [9]) | inhibition of Aβ aggregation (Aβ (1-42) peptide; [10]) | step-through latency in the retention trial vs control [2, 11] | ORAC activities, fold higher than those of Trolox [1] | inhibition at 10 µM (Aβ (1-42) peptide; [14]) | also measured
1 | O=C(O[C@H]1[C@@H]2OC(=O)c3cc(O)c(O)c(O)c3-c3c(cc(O)c(O)c3O)C(=O)OC[C@H]2OC(O)[C@@H]1OC(=O)c1cc(O)c(O)c(O)c1)c1cc(O)c(O)c(O)c1 (some centres unmarked) [TT-8, tellimagrandin I] | 4.73 and 4.74 | 7.5 μM Trolox equivalents | 97.13% | 100% | – | – | – | ORAC activities relative to those of Trolox [1]: 75%; inhibition at 10 µM (Aβ (1-42) peptide): 66.6%
2 | COc1cc2c(cc1OC)C(=O)C(CC1CCN(Cc3ccccc3)CC1)C2 (centres unmarked) [donepezil, donepezil hydrochloride] | – | – | – | – | showed longer step-through latency | – | – | step-through latency in the retention trial vs control ([2]; extract experiment, oral 50EE or HWE 100 and 200 mg/kg daily day 1-20, donepezil 5 mg/kg day 11-20): remained for a longer period of time in the light box; crossing numbers in the target quadrant, probe test, vs control [3, 12]: higher crossing numbers in the target quadrant; time spent in the target quadrant, probe test, vs control [3, 12]: spent more time in the target quadrant; crossing numbers in the target quadrant, probe test, vs control [3, 13]: higher crossing numbers in the target quadrant; time spent in the target quadrant, probe test, vs control [3, 13]: longer time spent in the target quadrant
3 | O=C(O[C@@H]1O[C@H](CO)[C@@H](O)[C@H](OC(=O)c2cc(O)c(O)c(O)c2)[C@H]1OC(=O)c1cc(O)c(O)c(O)c1)c1cc(O)c(O)c(O)c1 [TT-3, 1,2,3-tri-O-galloyl-β-D-glucopyranoside] | 3.43 | 15.1 μM Trolox equivalents | 92.44% | – | – | close to two-fold higher | 42.7% | –
4 | O=C(OC[C@H]1O[C@@H](OC(=O)c2cc(O)c(O)c(O)c2)[C@H](OC(=O)c2cc(O)c(O)c(O)c2)[C@@H](O)[C@@H]1O)c1cc(O)c(O)c(O)c1 [TT-4, 1,2,6-tri-O-galloyl-β-D-glucopyranoside] | < 3.10 | 18.1 μM Trolox equivalents | 86.82% | 100% | – | close to two-fold higher | 54.6% | inhibition at 800 µM (recombinant human AChE; at concentration of 800 μM): < 50%
5 | O=C(O)c1cc(O)c(O)c(O)c1 [TT-6, gallic acid] | – | 23.7 μM Trolox equivalents | 77.73% | 88.19% | – | 2.4 fold | 37.2% | pIC50 (recombinant human AChE; [15]): 3.61; learning behavior functions in the probe test of the Morris water maze [4]: showed improved learning behavior functions
6 | O=C(OC1O[C@@H]2COC(=O)c3cc(O)c(O)c(O)c3-c3c(cc(O)c(O)c3O)C(=O)O[C@H]2[C@H](OC(=O)c2cc(O)c(O)c(O)c2)[C@H]1OC(=O)c1cc(O)c(O)c(O)c1)c1cc(O)c(O)c(O)c1 (some centres unmarked) [TT-1, Tellimagrandin II] | – | 5.1 μM Trolox equivalents | 100% | 100% | showed longer step-through latency | – | 75.8% | pIC50 (recombinant human AChE; [15]): 4.73; ORAC activities relative to those of Trolox [1]: 50%; crossing numbers in the target quadrant, probe test, vs control [3, 13]: higher crossing numbers in the target quadrant; time spent in the target quadrant, probe test, vs control [3, 13]: longer time spent in the target quadrant; AChE activity in brain extracts vs control [5]: lower AChE activity; reduced form GSH contents in brain extracts vs control [6]: higher reduced form GSH contents; remaining contents ([7]; acidic buffers (pH 2 or pH 4) and simulated gastric fluids (pH 1.2)): higher than 90%; residual content ([7]; simulated intestinal fluids (pH 7.5) at 37 °C for 9 h): 31.40%
7 | O=C(OC[C@H]1O[C@@H](OC(=O)c2cc(O)c(O)c(O)c2)[C@H](OC(=O)c2cc(O)c(O)c(O)c2)[C@@H](OC(=O)c2cc(O)c(O)c(O)c2)[C@@H]1O)c1cc(O)c(O)c(O)c1 [TT-2, 1,2,3,6-tetra-O-galloyl-β-D-glucopyranoside] | 4.07 | 18.7 μM Trolox equivalents | 88.08% | – | no significant differences (p > 0.05) | close to two-fold higher | 58.5% | –
